“Also recorded” adds a separate entry of the source.
Tests used:
[1] = Moisture sorption analysis (dynamic vapor sorption, DVS); assay type: physicochemical; conditions: for hygroscopic behaviour: DVS, 0 to 95% RH at 25° C.; for loss of hydration water at low relative humidity: RH of 20% or less
Experimental: The moisture sorption analysis (DVS) was performed using a Surface Measurement Systems Advantage-1 dynamic vapor sorption apparatus. The moisture profile was evaluated by monitoring vapor adsorption/desorption over the range of 0 to 95% relative humidity at 25° C. The moisture profile consisted of 2 cycles of vapor adsorption/desorption.

[2] = Physical stability study with respect to water loss or uptake (water content by coulometric Karl Fischer); assay type: physicochemical
Experimental: The physical stability of Compound A monohydrate, Form III with respect to water loss or uptake was tested.
For the initial study, 0.5 g samples of monohydrate Form III were placed in double antistatic colourless LDPE bags and sealed.
For the long-term study (stability after 1 month and 3 months), 1.5 g samples of monohydrate Form III were placed in double antistatic colourless LDPE bags and sealed. The samples were stored at 30±2° C./75±5% RH and 40±2° C./75±5% RH in cardboard drums.
For the photostability study, 1.5 g of monohydrate Form III was placed into a petri dish and spread into a layer of no more than 3 mm thick. The petri dish was covered with quartz coverslips and sealed with parafilm. The photostability testing was carried out in line with ICH Q1B option 2 (ICH Harmonised Tripartite Guideline, Stability testing: Photostability testing of new drug substances and products, Q1B, Step 4 version, 6 Nov. 1996). Photostability samples were stored under separate lamps emitting visible and UV-A light, such that the total exposure was not less than 1.2 million lux hours and 200 Watt hours/m^2, respectively.
The water content of each of the samples was determined using a vaporized coulometric Karl Fischer method, in accordance with the US Pharmacopeia (USP <921> method IC; most recently appeared in Pharmacopeial Forum: Volume No. 38(1); Page information USP42/NF37-7092) and European Pharmacopeia 2.5.32 (Edition 10.0).

Structure (SMILES) | hygroscopic behaviour [1] | loss of hydration water at low relative humidity [1] | solid-state form change after the DVS test (XRPD pattern and IR spectrum) ([1]; fraction obtained after the DVS test vs starting material) | moisture adsorbed ([1]; humidity range 0-20% RH) | moisture adsorption and desorption ([1]; humidity range 20-95% RH, slow and reversible) [%] | weight loss during the initial drying step (DVS change in mass plot) ([1]; initial drying step) [%] | Water content (%) ([2]; 30° C./75% RH, 1 month) | Water content (%) ([2]; 30° C./75% RH, 3 months) | Water content (%) ([2]; 40° C./75% RH, 1 month) | Water content (%) ([2]; 40° C./75% RH, 3 months) | Water content (%) ([2]; Initial) | hygroscopic character concluded from the stability study ([2]; Table 3 storage conditions) | Water content (%) ([2]; photostability, 1 × ICH option 2) | hygroscopic behaviour ([1]; monohydrate) | loss of hydration water at low relative humidity ([1]; monohydrate) | water uptake ([1]; at 80% relative humidity)
O=C(Nc1ccnc(C(F)(F)F)c1)c1cnn(-c2cccc3c(=O)[nH]ccc23)c1C(F)(F)F [Form I, 1-(1-oxo-1,2-dihydroisoquinolin-5-yl)-5-(trifluoromethyl)-N-[2-(trifluoromethyl)pyridin-4-yl]-1H-pyrazole-4-carboxamide (Compound A) hydrate, Form I] | hygroscopic | lost at RH of 20% and less | No indication of a solid-state form change | 4.1-4.2% | 1.8 | ~2.7 |  |  |  |  |  |  |  |  |  | 
O=C(Nc1ccnc(C(F)(F)F)c1)c1cnn(-c2cccc3c(=O)[nH]ccc23)c1C(F)(F)F [Form III, 1-(1-oxo-1,2 dihydroisoquinolin-5-yl)-5-(trifluoromethyl)-N-(2-(trifluoromethyl)pyridin-4-yl)-1H-pyrazole-4-carboxamide (Compound A) monohydrate] |  |  |  |  |  |  | 3.3 | 3.8 | 3.3 | 3.2 | 3.4 | non-hygroscopic | 3.4 | non-hygroscopic | does not lose water; also recorded: avoids loss of water | less than 0.2%

Reference: US12269813B2, “Crystalline form of 1-(1-oxo-1,2-dihydroisoquinolin-5-yl)-5-(trifluoromethyl)-N-(2-(trifluoromethyl)pyridin-4-yl)-1H-pyrazole-4-carboxamide monohydrate” (Janssen Pharmaceutica NV, priority 2019, dated 2025)
